Test results as given in patent publication US6521613B2, “Lactam compounds for penetration enhancement” (Allergan, Inc., priority 2001, dated 2003).

Tested on: rabbit cornea
Assay: Penetration enhancement testing: rate of diffusion of drug between chambers separated by rabbit cornea
Format: in vitro ADME
Settings: test drugs prednisolone, guanethidine, flurbiprofen, compound used as penetration enhancer
Description: Permeation efficiencies are determined by measuring the rate of diffusion of drug between posterior and anterior chambers separated by rabbit cornea. Suitable test drugs include prednisolone, guanethidine, and flurbiprofen. Compounds II and V, described in Examples 2 and 4 above, are tested penetration enhancers. Water, acetone, ethanol, and GBR (glutathione-buffered Ringer's solution) are convenient vehicles used alone or in combination together with the test drugs and the proposed penetration enhancers. The relative rates of diffusion can be determined indirectly by measuring pH versus time in the respective chambers, or by HPLC.

| SMILES | penetration or permeation of test drugs relative to similar compositions without the present compounds |
| --- | --- |
| O=C1CCCCCN1CCOCCOCCO [Compound V, N-triethyleneglycol Caprolactam] | enhanced penetration or permeation |
| CCOCCOCCOCCN1CCCCCC1=O [Compound II, N-triethoxyethylether Caprolactam] | enhanced penetration or permeation |
